# In ChEMBL document CHEMBL4765295, “Synthesis, pharmacological profile and 2D-QSAR studies of curcumin-amino acid conjugates as potential drug candidates” (Eur J Med Chem, 2020):
# Where “and” joins values, the source holds several entries; their conditions need not be identical. Equal values may be shown once.
# Test system: Mus musculus
# Experiment: Analgesic activity in albino mouse assessed as forepaw licking/jumping latency time at 10 mg/kg, ip measured after 120 mins by hot plate test (reference value: 2.62 +/- 0.06 sec)
# Type: functional
# Conditions: 2 h
row,Structure (SMILES),Time [s]
1,COc1cc(/C=C/C(=O)/C=C(O)/C=C/c2ccc(OC(=O)C(C)NC(=O)OCc3ccccc3)c(OC)c2)ccc1OC(=O)C(C)NC(=O)OCc1ccccc1 (centres undefined),3.12

# Test system: Rattus norvegicus
# Experiment: Anti-inflammatory activity in Wistar rat assessed as inhibition of carrageenan-induced paw edema at 10 mg/kg, ip pretreated for 1 hr followed by carrageenan challenge and measured after 4 hr relative to indomethacin
# Type: functional
# Conditions: time 5 hrs
row,Structure (SMILES),inhibition in vivo at 10 mg/kg [%]
1,COc1cc(/C=C/C(=O)/C=C(O)/C=C/c2ccc(OC(=O)C(C)NC(=O)OCc3ccccc3)c(OC)c2)ccc1OC(=O)C(C)NC(=O)OCc1ccccc1 (centres undefined),115

# Test system: Mus musculus
# Experiment: Analgesic activity in albino mouse assessed as protection at 10 mg/kg, ip measured after 120 mins by hot plate test relative to indomethacin
# Type: functional
# Conditions: 2 h
row,Structure (SMILES),Activity [%]
1,COc1cc(/C=C/C(=O)/C=C(O)/C=C/c2ccc(OC(=O)C(C)NC(=O)OCc3ccccc3)c(OC)c2)ccc1OC(=O)C(C)NC(=O)OCc1ccccc1 (centres undefined),45.5

# Test system: Rattus norvegicus
# Experiment: Antiinflammatory activity in Wistar rat model of carrageenan-induced paw edema assessed as reduction in thickness of paw edema at 10 mg/kg, ip pretreated for 1 hr followed by carrageenan challenge and measured after 24 hrs (reference value: 0.83 +/-0.08 mm)
# Type: functional
# Conditions: time 25 hrs
row,Structure (SMILES),Activity [mm]
1,COc1cc(/C=C/C(=O)/C=C(O)/C=C/c2ccc(OC(=O)C(C)NC(=O)OCc3ccccc3)c(OC)c2)ccc1OC(=O)C(C)NC(=O)OCc1ccccc1 (centres undefined),0

# Test system: Splenocyte
# Experiment: Immunomodulatory activity in Swiss albino mouse splenocytes assessed as cell viability at 10 uM by measuring inhibition of stimulation index incubated for 72 hrs in presence of mitogenic stimulus phytohaemagglutinin by MTT assay relative to indomethacin
# Type: functional
# Conditions: read-out: Activity
row,Structure (SMILES),viability at 10 µM [%]
1,COc1cc(/C=C/C(=O)/C=C(O)/C=C/c2ccc(OC(=O)C(C)NC(=O)OCc3ccccc3)c(OC)c2)ccc1OC(=O)C(C)NC(=O)OCc1ccccc1 (centres undefined),103

# Test system: Mus musculus
# Experiment: Analgesic activity in albino mouse assessed as forepaw licking/jumping latency time at 10 mg/kg, ip measured after 30 mins by hot plate test (reference value: 5.02 +/- 0.09 sec)
# Type: functional
# Conditions: 0.5 h
row,Structure (SMILES),Time [s]
1,COc1cc(/C=C/C(=O)/C=C(O)/C=C/c2ccc(OC(=O)C(C)NC(=O)OCc3ccccc3)c(OC)c2)ccc1OC(=O)C(C)NC(=O)OCc1ccccc1 (centres undefined),6.26

# Test system: Salmonella typhimurium
# Experiment: Antibacterial activity against Salmonella typhimurium ATCC 19430 incubated for 18 hrs by agar dilution assay
# Type: functional, Salmonella enterica subsp. enterica serovar Typhimurium
# Conditions: Salmonella enterica
row,MIC,Structure (SMILES)
1,0.5 µg/mL and 0.642 µM,COc1cc(/C=C/C(=O)/C=C(O)/C=C/c2ccc(OC(=O)C(C)NC(=O)OCc3ccccc3)c(OC)c2)ccc1OC(=O)C(C)NC(=O)OCc1ccccc1 (centres undefined)

# Test system: Rattus norvegicus
# Experiment: Antiinflammatory activity in Wistar rat model of carrageenan-induced paw edema assessed as reduction in thickness of paw edema at 10 mg/kg, ip pretreated for 1 hr followed by carrageenan challenge and measured after 2 hrs (reference value: 2.06 +/-0.09 mm)
# Type: functional
# Conditions: time 3 hrs
row,Structure (SMILES),Activity [mm]
1,COc1cc(/C=C/C(=O)/C=C(O)/C=C/c2ccc(OC(=O)C(C)NC(=O)OCc3ccccc3)c(OC)c2)ccc1OC(=O)C(C)NC(=O)OCc1ccccc1 (centres undefined),0.26

# Test system: Streptococcus pyogenes
# Experiment: Antibacterial activity against Streptococcus pyogenes ATCC 19615 incubated for 18 hrs by agar dilution method
# Type: functional
# Conditions: not given
row,MIC,Structure (SMILES)
1,0.125 µg/mL and 0.161 µM,COc1cc(/C=C/C(=O)/C=C(O)/C=C/c2ccc(OC(=O)C(C)NC(=O)OCc3ccccc3)c(OC)c2)ccc1OC(=O)C(C)NC(=O)OCc1ccccc1 (centres undefined)

# Test system: Rattus norvegicus
# Experiment: Anti-inflammatory activity in Wistar rat assessed as inhibition of carrageenan-induced paw edema at 10 mg/kg, ip pretreated for 1 hr followed by carrageenan challenge and measured after 3 hr relative to control (reference value: 0.00 +/-0.1 %)
# Type: functional
# Conditions: time 4 hrs
row,Structure (SMILES),inhibition in vivo at 10 mg/kg [%]
1,COc1cc(/C=C/C(=O)/C=C(O)/C=C/c2ccc(OC(=O)C(C)NC(=O)OCc3ccccc3)c(OC)c2)ccc1OC(=O)C(C)NC(=O)OCc1ccccc1 (centres undefined),97

# Test system: Splenocyte
# Experiment: Immunomodulatory activity in Swiss albino mouse splenocytes assessed as cell viability at 10 uM by measuring stimulation index incubated for 72 hrs in presence of mitogenic stimulus phytohaemagglutinin by MTT assay (reference value: 1.00 +/- 0.24)
# Type: functional
# Conditions: not given
row,Structure (SMILES),Activity_index
1,COc1cc(/C=C/C(=O)/C=C(O)/C=C/c2ccc(OC(=O)C(C)NC(=O)OCc3ccccc3)c(OC)c2)ccc1OC(=O)C(C)NC(=O)OCc1ccccc1 (centres undefined),1.18

# Test system: Rattus norvegicus
# Experiment: Anti-inflammatory activity in Wistar rat assessed as inhibition of carrageenan-induced paw edema at 10 mg/kg, ip pretreated for 1 hr followed by carrageenan challenge and measured after 24 hr relative to control (reference value: 0.00 +/-0.3 %)
# Type: functional
# Conditions: time 25 hrs
row,Structure (SMILES),inhibition in vivo at 10 mg/kg [%]
1,COc1cc(/C=C/C(=O)/C=C(O)/C=C/c2ccc(OC(=O)C(C)NC(=O)OCc3ccccc3)c(OC)c2)ccc1OC(=O)C(C)NC(=O)OCc1ccccc1 (centres undefined),100

# Test system: Mus musculus
# Experiment: Analgesic activity in albino mouse assessed as protection at 10 mg/kg, ip measured after 30 mins by hot plate test (reference value: 0 %)
# Type: functional
# Conditions: 0.5 h
row,Structure (SMILES),Activity [%]
1,COc1cc(/C=C/C(=O)/C=C(O)/C=C/c2ccc(OC(=O)C(C)NC(=O)OCc3ccccc3)c(OC)c2)ccc1OC(=O)C(C)NC(=O)OCc1ccccc1 (centres undefined),24.7

# Test system: Staphylococcus aureus
# Experiment: Antibacterial activity against Staphylococcus aureus ATCC 25923 incubated for 18 hrs by agar dilution method
# Type: functional
# Conditions: not given
row,MIC,Structure (SMILES)
1,0.5 µg/mL and 0.642 µM,COc1cc(/C=C/C(=O)/C=C(O)/C=C/c2ccc(OC(=O)C(C)NC(=O)OCc3ccccc3)c(OC)c2)ccc1OC(=O)C(C)NC(=O)OCc1ccccc1 (centres undefined)

# Test system: Rattus norvegicus
# Experiment: Anti-inflammatory activity in Wistar rat assessed as inhibition of carrageenan-induced paw edema at 10 mg/kg, ip pretreated for 1 hr followed by carrageenan challenge and measured after 1 hr relative to control (reference value: 0.00 +/-0.02 %)
# Type: functional
# Conditions: time 2 hrs
row,Structure (SMILES),inhibition in vivo at 10 mg/kg [%]
1,COc1cc(/C=C/C(=O)/C=C(O)/C=C/c2ccc(OC(=O)C(C)NC(=O)OCc3ccccc3)c(OC)c2)ccc1OC(=O)C(C)NC(=O)OCc1ccccc1 (centres undefined),72

# Test system: Rattus norvegicus
# Experiment: Antiinflammatory activity in Wistar rat model of carrageenan-induced paw edema assessed as reduction in thickness of paw edema at 10 mg/kg, ip pretreated for 1 hr followed by carrageenan challenge and measured after 4 hrs (reference value: 1.40 +/-0.10 mm)
# Type: functional
# Conditions: time 5 hrs
row,Structure (SMILES),Activity [mm]
1,COc1cc(/C=C/C(=O)/C=C(O)/C=C/c2ccc(OC(=O)C(C)NC(=O)OCc3ccccc3)c(OC)c2)ccc1OC(=O)C(C)NC(=O)OCc1ccccc1 (centres undefined),0

# Test system: Mus musculus
# Experiment: Analgesic activity in albino mouse assessed as forepaw licking/jumping latency time at 10 mg/kg, ip measured after 90 mins by hot plate test (reference value: 2.72 +/- 0.01 sec)
# Type: functional
# Conditions: 1.5 h
row,Structure (SMILES),Time [s]
1,COc1cc(/C=C/C(=O)/C=C(O)/C=C/c2ccc(OC(=O)C(C)NC(=O)OCc3ccccc3)c(OC)c2)ccc1OC(=O)C(C)NC(=O)OCc1ccccc1 (centres undefined),3.22

# Test system: not listed separately
# Experiment: Ulcerogenic activity in fasted albino mouse assessed as ulcer index in gastric mucosa at 10 mg/kg, po for 3 days (reference value: 0)
# Type: toxicity, organism-based
# Conditions: in vivo, 72 h, time 3 day
row,Structure (SMILES),UI
1,COc1cc(/C=C/C(=O)/C=C(O)/C=C/c2ccc(OC(=O)C(C)NC(=O)OCc3ccccc3)c(OC)c2)ccc1OC(=O)C(C)NC(=O)OCc1ccccc1 (centres undefined),4.67

# Test system: Mus musculus
# Experiment: Analgesic activity in albino mouse assessed as protection at 10 mg/kg, ip measured after 90 mins by hot plate test (reference value: 0 %)
# Type: functional
# Conditions: 1.5 h
row,Structure (SMILES),Activity [%]
1,COc1cc(/C=C/C(=O)/C=C(O)/C=C/c2ccc(OC(=O)C(C)NC(=O)OCc3ccccc3)c(OC)c2)ccc1OC(=O)C(C)NC(=O)OCc1ccccc1 (centres undefined),18.4
